Results taken from paper PMC12471299, “Secondary Metabolites of the Marine Sponge-Derived Fungus Aspergillus subramanianii 1901NT-1.40.2 and Their Antimicrobial and Anticancer Activities” (Marine Drugs, 2025).
Where two headings read alike, the source gives them in different places.

Columns and labels:
[1] = test system: A375 cells; set-up: method as in PMID 29642369; details: A375, at 100 µM; cited from earlier work
[2] = test system: A549 cells; set-up: method as in PMID 29642369; details: A549, at 100 µM; cited from earlier work
[3] = test system: HepG2 cells; set-up: method as in PMID 29642369; details: HepG2, at 100 µM; cited from earlier work
[4] = Competitive assay with 4-hydroxytamoxifen (MTT viability); format: cell-based; details: human
Protocol: Since estrogen-dependent breast cancer MCF-7 cells were proposed to be more sensitive to compound 8, the estrogen receptor (ER) dependence of petromurin C (8) cytotoxicity to estrogen-dependent MCF-7 cells was investigated using 4-hydroxytamoxifen (4-OHT) as an ERs antagonist. MCF-7 cells were pretreated with 4-OHT at a nontoxic concentration of 0.1 µM for 1 h, and 8 at 10 µM was added for 48 h. The antagonist of estrogenic receptors, 4-hydroxytamoxifen (Lumiprobe, Moscow, Russia), was dissolved in DMSO at a concentration of 10 mM and stored with protection from light. The probe was then added to the cells at a final concentration of 1 µM. The investigated compounds were added to the cells after 1 h. Then the viability of MCF-7 cells was measured after 48 h using MTT assay (Section 4.8.3).

Structure (SMILES)	effect on cells [1]	effect on cells [2]	effect on cells [3]	viability at 48 h, 10 µM ([4]; MCF-7 cells pretreated with 4-hydroxytamoxifen, 4-OHT 0.1 µM for 1 h, then 8 at 10 µM, read-out: viability of 4-OHT-pretreated MCF-7 cells) [%]	viability at 48 h, 10 µM ([4]; MCF-7 cells, 8 at 10 µM, no 4-OHT, read-out: viability of MCF-7 cells) [%]
COC1=C(c2c[nH]c3ccccc23)C(=O)C(CC=C(C)C)=C(c2c[nH]c3ccccc23)C1=O [Compound 6, kumbicin D]	weak effects	weak effects	weak effects		
COc1c(OC)c(-c2c[nH]c3ccc(O)cc23)c(OC)c(OC)c1-c1c[nH]c2ccccc12 [Compound 8, petromurin C]				84.4 ± 1.1	76.1 ± 1.6
